Measurements reported in ChEMBL document CHEMBL1201862, “PubChem BioAssay data set” (2004).
Activity calls are given as the source filed them.

Experiments:
[1] = tested on: Streptococcus sp. 'group A'; experiment: Streptococcus pyogenes SK(-)GAS viability under kanamycin – luminescence, BacTiterGlo, confirmation, counter-screen for streptokinase expression inhibitor project, dose response (AID 1900); assay type: functional, organism-based
Streptokinase A = molecular target: T1, Streptokinase A (Streptococcus pyogenes serotype M1, UniProt P10520); experiment: viability-normalized secreted streptokinase activity reduction – plasminogen activation absorbance, OD405, dose response (AID 1914); assay type: functional, Streptococcus pyogenes M1 GAS;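 further: secreted streptokinase activity via plasminogen activation per viability signal from cell pellet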
T1 sequence (P10520 whole entry): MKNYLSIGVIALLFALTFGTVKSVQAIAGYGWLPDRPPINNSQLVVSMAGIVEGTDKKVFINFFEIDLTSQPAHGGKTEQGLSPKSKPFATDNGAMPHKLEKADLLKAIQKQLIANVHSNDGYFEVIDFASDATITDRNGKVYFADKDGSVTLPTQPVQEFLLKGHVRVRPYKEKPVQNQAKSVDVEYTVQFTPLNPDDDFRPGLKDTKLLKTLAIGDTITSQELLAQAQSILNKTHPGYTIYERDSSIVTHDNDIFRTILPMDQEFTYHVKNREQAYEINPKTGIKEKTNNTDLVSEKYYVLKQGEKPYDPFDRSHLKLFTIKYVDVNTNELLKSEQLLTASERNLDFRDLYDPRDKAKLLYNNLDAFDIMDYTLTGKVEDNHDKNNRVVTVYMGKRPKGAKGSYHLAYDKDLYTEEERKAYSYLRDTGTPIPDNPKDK

Streptococcus = experiment: GAS UMAA2166 growth inhibition – luminescence, BacTiterGlo, counter-screen for streptokinase expression inhibitor project, dose response (AID 1915); assay type: functional, organism-based;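 further: potency for reduction of bacterial viability or growth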
Cysteine protease ATG4B = molecular target: T2, Cysteine protease ATG4B (Homo sapiens, UniProt Q9Y4P1); assay type: functional;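 further: Fluorescence-based dose-response confirmation assay measuring inhibition of ATG4B activity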
T2 sequence (Q9Y4P1 whole entry): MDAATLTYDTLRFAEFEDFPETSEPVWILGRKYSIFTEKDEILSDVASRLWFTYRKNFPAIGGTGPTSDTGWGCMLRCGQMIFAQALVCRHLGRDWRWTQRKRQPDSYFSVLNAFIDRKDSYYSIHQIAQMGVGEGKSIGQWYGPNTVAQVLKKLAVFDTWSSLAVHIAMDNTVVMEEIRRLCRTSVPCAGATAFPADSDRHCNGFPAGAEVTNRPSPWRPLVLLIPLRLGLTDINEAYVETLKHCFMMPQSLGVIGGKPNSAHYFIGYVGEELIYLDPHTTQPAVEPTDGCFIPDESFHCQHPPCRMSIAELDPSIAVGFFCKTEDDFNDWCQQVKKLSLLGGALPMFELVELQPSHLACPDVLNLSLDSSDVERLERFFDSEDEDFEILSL

Phospholipase A2 = Phospholipase A2 (Homo sapiens, UniProt P04054); assay type: functional;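 further: confirmatory dose-response counterscreen on phospholipase A2, testing hits that came from an ultra-high-throughput screen for ATG4B inhibitors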
Fatty acid synthase [2] = molecular target: T3, Fatty acid synthase (Homo sapiens, UniProt P49327); experiment: inhibition of human FAS-TE enzyme activity – biochemical, endpoint fluorescence intensity, uHTS hits, dose response (AID 624327); assay type: functional;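 further: fluorescence from hydrolysis of an O-methyl fluorescein acyl ester substrate by the enzyme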
Fatty acid synthase [3] = molecular target: T3, Fatty acid synthase; experiment: inhibition of human FAS-TE enzyme activity – biochemical, kinetic fluorescence intensity, dose response (AID 624326); assay type: functional;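 further: rate of fluorescence rise from hydrolysis of a fluorogenic O-methyl fluorescein ester substrate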
Candida albicans [4] = experiment: fluconazole-resistant Candida strain growth inhibitors – CaCi-8 strain, dry powder, set 4, dose response (AID 488950); assay type: functional, organism-based
Candida albicans [5] = experiment: C. albicans growth inhibition with fluconazole – CaCi-2 strain, Alamar Blue, dry powder, set 4, dose response (AID 488943); assay type: functional, organism-based

Sequence of Phospholipase A2 (P04054 whole entry): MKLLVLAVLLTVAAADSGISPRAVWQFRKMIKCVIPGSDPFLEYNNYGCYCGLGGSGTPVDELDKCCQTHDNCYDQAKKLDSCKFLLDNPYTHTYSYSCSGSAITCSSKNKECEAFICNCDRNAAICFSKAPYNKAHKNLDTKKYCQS
T3 sequence (P49327 whole entry): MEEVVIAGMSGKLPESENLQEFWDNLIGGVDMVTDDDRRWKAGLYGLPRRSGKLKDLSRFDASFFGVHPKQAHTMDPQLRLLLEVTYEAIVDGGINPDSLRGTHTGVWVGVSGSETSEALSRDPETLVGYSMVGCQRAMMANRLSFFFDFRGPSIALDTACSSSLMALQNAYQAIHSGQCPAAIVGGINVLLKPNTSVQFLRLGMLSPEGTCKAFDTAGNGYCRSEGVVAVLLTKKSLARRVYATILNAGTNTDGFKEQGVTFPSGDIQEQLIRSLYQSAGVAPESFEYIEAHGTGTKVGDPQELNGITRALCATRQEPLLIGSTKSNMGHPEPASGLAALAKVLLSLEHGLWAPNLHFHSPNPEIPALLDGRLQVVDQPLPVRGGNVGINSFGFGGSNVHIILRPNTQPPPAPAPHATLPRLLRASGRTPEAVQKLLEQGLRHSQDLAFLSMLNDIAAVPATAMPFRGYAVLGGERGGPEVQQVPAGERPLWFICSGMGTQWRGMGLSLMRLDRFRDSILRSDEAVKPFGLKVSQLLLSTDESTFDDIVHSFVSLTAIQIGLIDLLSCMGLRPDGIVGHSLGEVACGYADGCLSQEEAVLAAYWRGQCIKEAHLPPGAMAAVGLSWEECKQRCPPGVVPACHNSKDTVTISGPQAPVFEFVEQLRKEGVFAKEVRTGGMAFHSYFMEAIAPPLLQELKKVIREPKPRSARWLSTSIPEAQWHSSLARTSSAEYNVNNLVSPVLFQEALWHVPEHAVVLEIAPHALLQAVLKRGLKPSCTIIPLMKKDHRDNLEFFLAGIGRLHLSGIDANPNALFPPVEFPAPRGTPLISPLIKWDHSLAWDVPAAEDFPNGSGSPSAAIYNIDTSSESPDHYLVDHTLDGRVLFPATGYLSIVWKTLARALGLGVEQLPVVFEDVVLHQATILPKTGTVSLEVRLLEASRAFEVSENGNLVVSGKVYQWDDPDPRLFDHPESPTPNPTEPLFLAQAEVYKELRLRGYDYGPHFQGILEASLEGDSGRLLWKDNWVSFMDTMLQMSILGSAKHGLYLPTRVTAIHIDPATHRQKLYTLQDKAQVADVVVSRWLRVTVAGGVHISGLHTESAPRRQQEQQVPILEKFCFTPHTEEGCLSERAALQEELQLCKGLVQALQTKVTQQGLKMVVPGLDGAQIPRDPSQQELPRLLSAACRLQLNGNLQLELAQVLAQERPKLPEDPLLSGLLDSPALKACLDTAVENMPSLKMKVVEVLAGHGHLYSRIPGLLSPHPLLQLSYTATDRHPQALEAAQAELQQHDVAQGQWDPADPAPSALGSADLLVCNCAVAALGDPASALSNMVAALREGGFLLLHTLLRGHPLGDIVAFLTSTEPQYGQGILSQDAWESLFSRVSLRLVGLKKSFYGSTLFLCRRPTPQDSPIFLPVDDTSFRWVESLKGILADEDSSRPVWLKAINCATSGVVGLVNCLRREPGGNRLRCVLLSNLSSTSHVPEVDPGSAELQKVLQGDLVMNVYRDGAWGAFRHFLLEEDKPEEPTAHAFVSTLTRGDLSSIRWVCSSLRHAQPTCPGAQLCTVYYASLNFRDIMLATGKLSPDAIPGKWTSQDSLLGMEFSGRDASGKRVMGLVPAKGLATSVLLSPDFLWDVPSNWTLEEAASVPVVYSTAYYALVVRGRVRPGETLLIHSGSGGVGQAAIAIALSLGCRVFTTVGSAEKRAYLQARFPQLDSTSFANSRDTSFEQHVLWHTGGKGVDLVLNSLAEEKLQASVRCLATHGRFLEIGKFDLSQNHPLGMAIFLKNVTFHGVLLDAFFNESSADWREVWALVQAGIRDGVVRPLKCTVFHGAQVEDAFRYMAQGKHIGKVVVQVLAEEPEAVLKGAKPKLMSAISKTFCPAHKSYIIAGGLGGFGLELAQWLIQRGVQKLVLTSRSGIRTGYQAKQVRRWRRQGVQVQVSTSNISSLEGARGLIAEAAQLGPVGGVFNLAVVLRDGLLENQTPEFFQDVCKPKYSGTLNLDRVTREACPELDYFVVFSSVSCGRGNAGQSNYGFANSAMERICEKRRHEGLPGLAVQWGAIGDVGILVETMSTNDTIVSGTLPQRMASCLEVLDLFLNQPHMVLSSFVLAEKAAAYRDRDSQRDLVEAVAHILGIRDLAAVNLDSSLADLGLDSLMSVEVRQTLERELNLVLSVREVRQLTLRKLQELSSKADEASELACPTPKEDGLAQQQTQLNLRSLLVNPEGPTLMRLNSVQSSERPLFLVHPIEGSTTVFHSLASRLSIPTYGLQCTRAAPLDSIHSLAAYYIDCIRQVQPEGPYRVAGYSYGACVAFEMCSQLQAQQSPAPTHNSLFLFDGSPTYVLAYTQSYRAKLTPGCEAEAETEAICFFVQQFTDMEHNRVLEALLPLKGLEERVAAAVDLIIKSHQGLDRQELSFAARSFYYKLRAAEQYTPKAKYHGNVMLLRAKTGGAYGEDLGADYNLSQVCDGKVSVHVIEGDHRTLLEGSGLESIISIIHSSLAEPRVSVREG

O=C1NC(=O)/C(=C\c2ccccc2OCc2ccccc2)S1
active: EC50 [1] 16.4 µM | EC50 (Streptokinase A) 37.6 µM | EC50 (Streptococcus) 88.8 µM | IC50 (Cysteine protease ATG4B) 10.7 µM | IC50 (Phospholipase A2) 8.29 µM

O=C(O/N=C1/CCSc2ccccc21)c1ccccc1
active: IC50 (Cysteine protease ATG4B) 16 µM | IC50 (Phospholipase A2) 13.2 µM

O=C(O)COc1ccccc1C=NNc1ccc([N+](=O)[O-])cc1S(=O)(=O)Nc1ccc(Cl)cc1
active: IC50 (Cysteine protease ATG4B) 10.6 µM | IC50 (Phospholipase A2) 12.2 µM | IC50 (Fatty acid synthase [2]) 10.8 µM | IC50 (Fatty acid synthase [3]) 12.5 µM

COc1ccc(OC)c2c(C)cc(N3CCN(C(=O)c4ccc(Cl)cc4)CC3)nc12
active: AC50 (Candida albicans [4]) 8.32 µM | AC50 (Candida albicans [5]) 9.36 µM
